Measurements published in PubChem BioAssay AID1259411 (Chemical Carcinogenesis Research Information System (CCRIS), 2018).
The source made the active and inactive calls. No rule for the calls is given here.

Test system: rodent carcinogenicity bioassays, tumor incidence
Test: CCRIS carcinogenicity studies
In short: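 NCI-built, expert-reviewed records of carcinogenicity and related test outcomes (mutagenicity, tumor promotion/inhibition) compiled from published and report sources, historical span 1985-2011, not updated.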

SMILES: C#CCN1C(=O)COc2cc(F)c(N3C(=O)C4=C(CCCC4)C3=O)cc21
- carcinogen call (Species: Mouse, Strain/Sex: Crj:CD-1 (ICR)/Female (51/Group), Route: Oral, Dose: 0, 36.6, 346.4, 859.1 mg/kg/day of 94.8% flumioxazin in diet for 78 wk, study duration 78 wk, Dose: 0, 36.6, 346.4, 859.1 mg/kg/day of 94.8% flumioxazin in diet for 78 wk, study duration 78 wk): inactive; negative
- carcinogen call (Species: Mouse, Strain/Sex: Crj:CD-1 (ICR)/Male (51/Group), Route: Oral, Dose: 0, 31.1, 314.9, 754.1 mg/kg/day of 94.8% flumioxazin in diet for 78 wk, study duration 78 wk, Dose: 0, 31.1, 314.9, 754.1 mg/kg/day of 94.8% flumioxazin in diet for 78 wk, study duration 78 wk): inactive; negative
- carcinogen call (Species: Rat, Strain/Sex: Crj:CD(SD)/Female (50/Group), Route: Oral, Dose: 0, 2.2, 21.8, 43.6 mg/kg/day of 94.8% flumioxazin in diet for up to 2 yr, study duration 2 yr, Dose: 0, 2.2, 21.8, 43.6 mg/kg/day of 94.8% flumioxazin in diet for up to 2 yr, study duration 2 yr): inactive; negative
- carcinogen call (Species: Rat, Strain/Sex: Crj:CD(SD)/Male (50/Group), Route: Oral, Dose: 0, 1.8, 18.0, 36.5 mg/kg/day of 94.8% flumioxazin in diet for up to 2 yr, study duration 2 yr, Dose: 0, 1.8, 18.0, 36.5 mg/kg/day of 94.8% flumioxazin in diet for up to 2 yr, study duration 2 yr): inactive; negative

SMILES: CN(C)C(=O)Nc1ccc(Cl)cc1
- carcinogen call (Species: MOUSE, Strain/Sex: B6C3F1/FEMALE, Route: ORAL, Dose: 0, 5000, 10000 PPM IN DIET FOR 103 WK (STUDY DURATION: 107 WK), Dose: 0, 5000, 10000 PPM IN DIET FOR 103 WK (STUDY DURATION: 107 WK)): inactive; negative
- carcinogen call (Species: MOUSE, Strain/Sex: B6C3F1/MALE, Route: ORAL, Dose: 0, 5000, 10000 PPM IN DIET FOR 103 WK (STUDY DURATION: 107 WK), Dose: 0, 5000, 10000 PPM IN DIET FOR 103 WK (STUDY DURATION: 107 WK)): inactive; negative
- carcinogen call (Species: RAT, Strain/Sex: F344/FEMALE, Route: ORAL, Dose: 0, 750, 1500 PPM IN DIET FOR 103 WK (STUDY DURATION: 106 WK), Dose: 0, 750, 1500 PPM IN DIET FOR 103 WK (STUDY DURATION: 106 WK)): inactive; negative
- carcinogen call (Species: RAT, Strain/Sex: F344/MALE, Route: ORAL, Dose: 0, 750, 1500 PPM IN DIET FOR 103 WK (STUDY DURATION: 106 WK), Dose: 0, 750, 1500 PPM IN DIET FOR 103 WK (STUDY DURATION: 106 WK), Tumor Site: Type of Lesion: LIVER: NEOPLASTIC NODULE, NEOPLASTIC NODULE OR CARCINOMA, KIDNEY: TUBULAR CELL ADENOMA, TUBULAR CELL ADENOCARCINOMA): active; positive

SMILES: C[C@]12CC[C@H]3[C@@H](CCC4=CC(=O)CC[C@@]43C)[C@@H]1CC[C@@H]2O
- carcinogen call (Species: MOUSE, Route: SUBCUTANEOUS IMPLANT, Tumor Site: Type of Lesion: MAMMARY GLAND, VAGINA): active; positive
- carcinogen call (Species: MOUSE, Route: SUBCUTANEOUS, Tumor Site: Type of Lesion: GENITAL TRACT): active; positive

SMILES: CCN(CC)C(=S)S
- carcinogen call (Species: MOUSE, Strain/Sex: B6C3F1/FEMALE, Route: ORAL, Dose: 0, 500, 4000 PPM IN DIET, Dose: 0, 500, 4000 PPM IN DIET): inactive; negative
- carcinogen call (Species: MOUSE, Strain/Sex: B6C3F1/MALE, Route: ORAL, Dose: 0, 500, 4000 PPM IN DIET, Dose: 0, 500, 4000 PPM IN DIET): inactive; negative
- carcinogen call (Species: RAT, Strain/Sex: F344/FEMALE, Route: ORAL, Dose: 0, 1250, 2000 PPM IN DIET, Dose: 0, 1250, 2000 PPM IN DIET): inactive; negative
- carcinogen call (Species: RAT, Strain/Sex: F344/MALE, Route: ORAL, Dose: 0, 1250, 2000 PPM IN DIET, Dose: 0, 1250, 2000 PPM IN DIET): inactive; negative

SMILES: CN(C)c1ccc(C(=C2C=CC(=[N+](C)C)C=C2)c2ccc(N(C)C)cc2)cc1
- carcinogen call (Species: MOUSE, Strain/Sex: B6C3F1/FEMALE, Route: ORAL, Dose: 0, 100, 300, 600 PPM IN DIET FOR 104 WK (STUDY DURATION: 2 YR), Dose: 0, 100, 300, 600 PPM IN DIET FOR 104 WK (STUDY DURATION: 2 YR), Tumor Site: Type of Lesion: LIVER: MALIGNANT NEOPLASM, HARDERIAN GLAND: ADENOMA, UTERUS: TYPE-A RETICULUM CELL SARCOMA, OVARIES: TYPE-A RETICULUM CE, Tumor Site: Type of Lesion: LIVER: MALIGNANT NEOPLASM, HARDERIAN GLAND: ADENOMA, UTERUS: TYPE-A RETICULUM CELL SARCOMA, OVARIES: TYPE-A RETICULUM CE): active; positive
- carcinogen call (Species: MOUSE, Strain/Sex: B6C3F1/MALE, Route: ORAL, Dose: 0, 100, 300, 600 PPM IN DIET FOR 104 WK (STUDY DURATION: 2 YR), Dose: 0, 100, 300, 600 PPM IN DIET FOR 104 WK (STUDY DURATION: 2 YR), Tumor Site: Type of Lesion: LIVER: MALIGNANT NEOPLASM, HARDERIAN GLAND: ADENOMA): active; positive
- carcinogen call (Species: RAT, Strain/Sex: F344/FEMALE, Route: ORAL, Dose: 0, 100, 300, 600 PPM IN FEED FOR 24 MO (STUDY DURATION: 24 MO), Dose: 0, 100, 300, 600 PPM IN FEED FOR 24 MO (STUDY DURATION: 24 MO), Tumor Site: Type of Lesion: LIVER: HEPATOCELLULAR ADENOMA, THYROID GLAND: FOLLICULAR CELL ADENOCARCINOMA): active; positive
- carcinogen call (Species: RAT, Strain/Sex: F344/MALE, Route: ORAL, Dose: 0, 100, 300, 600 PPM IN FEED FOR 24 MO (STUDY DURATION: 24 MO), Dose: 0, 100, 300, 600 PPM IN FEED FOR 24 MO (STUDY DURATION: 24 MO), Tumor Site: Type of Lesion: LIVER: HEPATOCELLULAR ADENOMA, THYROID GLAND: FOLLICULAR CELL ADENOCARCINOMA): active; positive

SMILES: CCN(N=O)C(=O)NCCO
- carcinogen call (Species: RAT, Strain/Sex: F344/FEMALE, Route: INTRAVESICULAR, Dose: 0, 3.6 MG 2/WK FOR 30 WK (STUDY DURATION: LIFETIME), Tumor Site: Type of Lesion: BLADDER: TUMOR, BRAIN: TUMOR): active; positive
- carcinogen call (Species: RAT, Strain/Sex: F344/FEMALE, Route: ORAL, Dose: 0, 37, 74 MG/L IN DRINKING WATER 5 D/WK FOR 30 WK (STUDY DURATION: LIFETIME), Dose: 0, 37, 74 MG/L IN DRINKING WATER 5 D/WK FOR 30 WK (STUDY DURATION: LIFETIME), Tumor Site: Type of Lesion: BLADDER: TUMOR, MAMMARY GLAND: TUMOR, UTERUS: TUMOR, NERVOUS SYSTEM: TUMOR, SKIN: TUMOR, MOUTH: TUMOR, Tumor Site: Type of Lesion: BLADDER: TUMOR, MAMMARY GLAND: TUMOR, UTERUS: TUMOR, NERVOUS SYSTEM: TUMOR, SKIN: TUMOR, MOUTH: TUMOR): active; positive
- carcinogen call (Species: RAT, Strain/Sex: F344/MALE, Route: GAVAGE, Dose: 0, 3.6 MG IN 0.2 ML ETHYL ACETATE/CORN OIL (1:1) 2/WK FOR 31 WK (TOTAL DOSE: 223 MG) (STUDY DURATION: 80 WK), Tumor Site: Type of Lesion: LUNG: CARCINOMA, ADENOMA, BRAIN: TUMORS, THYROID: CARCINOMA OR ADENOMA, PERITONEUM: MESOTHELIOMA, ZYMBAL GLAND: CARCINOM, Tumor Site: Type of Lesion: LUNG: CARCINOMA, ADENOMA, BRAIN: TUMORS, THYROID: CARCINOMA OR ADENOMA, PERITONEUM: MESOTHELIOMA, ZYMBAL GLAND: CARCINOM): active; positive
- carcinogen call (Species: RAT, Strain/Sex: F344/MALE, Route: ORAL, Dose: 0, 37, 74 MG/L IN DRINKING WATER 5 D/WK FOR 30 WK (STUDY DURATION: LIFETIME), Dose: 0, 37, 74 MG/L IN DRINKING WATER 5 D/WK FOR 30 WK (STUDY DURATION: LIFETIME), Tumor Site: Type of Lesion: LUNG: TUMOR, BLADDER: TUMOR, MESOTHELIUM: TUMOR, NERVOUS SYSTEM: TUMOR, SKIN: TUMOR, Tumor Site: Type of Lesion: LUNG: TUMOR, BLADDER: TUMOR, MESOTHELIUM: TUMOR, NERVOUS SYSTEM: TUMOR, SKIN: TUMOR): active; positive

SMILES: CC(C)[C@@H]1CC[C@@H](C)C[C@H]1O
- carcinogen call (Species: MOUSE, Strain/Sex: B6C3F1/FEMALE, Route: ORAL, Dose: 0, 2000, 4000 PPM IN DIET, Dose: 0, 2000, 4000 PPM IN DIET): inactive; negative
- carcinogen call (Species: MOUSE, Strain/Sex: B6C3F1/MALE, Route: ORAL, Dose: 0, 2000, 4000 PPM IN DIET, Dose: 0, 2000, 4000 PPM IN DIET): inactive; negative
- carcinogen call (Species: RAT, Strain/Sex: F344/FEMALE, Route: ORAL, Dose: 0, 3750, 7500 PPM IN DIET, Dose: 0, 3750, 7500 PPM IN DIET): inactive; negative
- carcinogen call (Species: RAT, Strain/Sex: F344/MALE, Route: ORAL, Dose: 0, 3750, 7500 PPM IN DIET, Dose: 0, 3750, 7500 PPM IN DIET): inactive; negative
